Drawing on patent publication US4428956A, “4-Hydroxy-5-substituted-3-(2H)-isothiazolone-1,1-dioxide derivatives useful in treating urinary tract calcium oxalate lithiasis” (Merck & Co., Inc., priority 1980, dated 1984), this text covers IC50 for one compound.

In the assay the target is T1, pig liver glycolate oxidase (Sus scrofa, UniProt I3LVF1).
T1 construct: The enzyme was pig liver glycolate oxidase; from tissue; host or cells: pig liver
T1 sequence (I3LVF1 1-370): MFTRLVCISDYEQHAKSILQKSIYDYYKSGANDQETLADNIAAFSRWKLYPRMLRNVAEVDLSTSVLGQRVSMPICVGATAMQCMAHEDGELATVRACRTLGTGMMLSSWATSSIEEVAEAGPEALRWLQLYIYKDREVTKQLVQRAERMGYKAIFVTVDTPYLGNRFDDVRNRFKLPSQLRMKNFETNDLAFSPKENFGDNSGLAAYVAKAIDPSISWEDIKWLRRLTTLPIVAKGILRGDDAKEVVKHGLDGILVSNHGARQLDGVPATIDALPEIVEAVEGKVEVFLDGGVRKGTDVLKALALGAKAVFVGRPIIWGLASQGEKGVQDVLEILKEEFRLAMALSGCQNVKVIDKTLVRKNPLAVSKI
The assay can be described thus: Glycolate Oxidase Enzyme Inhibition. It counts as biochemical. Conditions: 25° C., 0.10 M phosphate buffer, pH 7.0, 3 mM EDTA; 5×10^-5 M sodium 2,6-dichlorophenol-indophenol, 2×10^-4 M sodium glycolate; initial rates 1 to 3 min., 600 nm. As to the method:
The usefulness of the compounds of the present invention in treating urinary tract, especially renal, calcium oxalate lithiasis, was shown by the ability of those compounds to inhibit the glycolate oxidase enzyme. […] The activity of the enzyme, in turn, was measured by following the rate of reduction of sodium 2,6-dichlorophenol-indophenol by sodium glycolate in the presence of the enzyme. The enzyme was pig liver glycolate oxidase. The reaction was followed spectrophotometrically at 600 nm. The assay was conducted at 25° C. in a 0.10 M phosphate buffer, pH 7.0, containing 3 mM EDTA. Initial substrate concentrations were 5×10^-5 M of sodium 2,6-dichlorophenol-indophenol and 2×10^-4 M of sodium glycolate. Reactions were initiated by the addition of enzyme. Initial rates during the period from 1 to 3 min. after the addition of enzyme were recorded on a Beckman Acta M-VI spectrophotometer. One control was run simultaneously with three test reactions, and all initial rates were adjusted to a common control rate. For further details of this procedure, see Randall et al., J. Med. Chem. 22, 6, 612 (1979).

The term IC50 denotes the concentration needed to halve the response being measured. High values mean weaker potency, low ones greater potency. Take `O=C1NS(=O)(=O)C(c2ccccc2)=C1O` [4-Hydroxy-5-phenyl-3(2H)-isothiazolone-1,1-dioxide]: the IC50 came to 2.1 µM.
